Where two headings read alike, the source gives them in different places.

One assay concerns KYSE-410 xenograft. Put plainly: Anti-tumor growth activity, KYSE-410 esophageal xenograft. The settings on record: 28 Day, negative = regression. Format: in vivo.
For assay [1], the system named is pMEK in H358 xenograft tumors. Nature of the assay: In vivo target inhibition/PD, H358 xenograft, pMEK. Further details: species or system mouse. The settings on record: for inhibition at 30 mg/kg: 30 mg/kg single dose. The procedure:
To evaluate in vivo target inhibition and anti-tumor efficacy of a compound, Human lung cancer cells, H358 or H2122 are implanted into nude mice xenograft tumor models. Either H358 or H2122 cells (10×10^6 in a 1:1 Matrigel® mix, 0.2 mL total volume) are implanted by subcutaneous injection in hind leg of nude female mice (Harlan Laboratories). A total of 5 mice each group are used for efficacy study, and a total of 3-4 mice each group are used for target engagement and PD study. Treatment is initiated with oral administration (gavage) of a test compound or vehicle (20% Captisol®, 25 mM phosphate, pH 2.0 in 0.2 mL volume when the tumor size reaches approximately […]. Tumor growth and body weight are monitored over time to evaluate efficacy and signs of toxicity. Bidimensional measurements of tumors are performed twice a week and tumor volumes are calculated based on mid-axis length and mid-axis width. Tumor volume data are transformed to a log scale to equalize variance across time and treatment groups. The log volume data are analyzed with a two-way repeated measures analysis of variance by time and treatment using the mixed procedures in SAS software (version 8.2). The correlation model for the repeated measures is spatial power. Treated groups are compared to the control group at each time point. The mixed procedure is also used separately for each treatment group to calculate adjusted means and standard errors at each time point. Both analyses account for the autocorrelation within each animal. The adjusted means and standard errors are plotted for each treatment group versus time.
For in vivo target inhibition and PD analysis, tumors are ground by mortar and pestle on dry ice and tumor fragments are added to 800 μL of lysis buffer containing 1% Triton X100, 25 mM Tris pH 7.5, 150 mM NaCl, 1 mM EDTA, and 1 mM EGTA with Halt protease and phosphatase inhibitor cocktail (Thermo Scientific, cat. no. 1861281) in lysing matrix D tubes (MP Biomedical®, cat. no. 6913-500) with one additional large bead (MP Biomedical® ¼″ ceramic sphere bead cat. no. 6540-412) per tube. Tumor fragments are homogenized in a Thermo Bio101® fast prep (FP120) at setting 4 for […] while cold for a total of 2 times. Lysates are spun at 14,000 rpm for 10 min at 4° C. to clarify. Protein estimation is done on the lysate supernatant using a BioRad Dc® protein assay and lysates are diluted in complete lysis/binding buffer from the Ras GTPase Chemi ELISA Kit® (Active Motif, cat. no. 52097). The active KRas ELISA was performed as follows: Glutathione-coated ELISA wells were incubated with diluted RAF1-GST in complete lysis/binding buffer for 1 hr at 4° C. with gentle agitation. Wells are washed 3 times with wash buffer and 100 μg of lysates are added to each well and incubated at RT for 1 hr with mild agitation. The wells are washed an additional 3 times, then primary antibody, diluted in antibody binding buffer, is added to each well. The plates are incubated for 1 hr. The wells are washed 3 more times before adding HRP-conjugated secondary antibody, diluted in antibody binding buffer, to each well. The plates are incubated at RT for 1 hr. ELISA wells are washed 4 times, chemiluminescent reagents is added and then luminescence is read. For pERK Meso Scale Discovery ELISA, 25 μg of protein containing 0.1% SDS is used; for pMEK Meso Scale Discovery ELISA, 50 μg of protein without SDS is used. Meso Scale Discovery Whole Cell Lysate Kits for pERK and pMEK are provided by Meso Scale Discovery.
The tumor samples are collected 4 hr post a single dose. The tumor lysates are prepared and the inhibition of pERK, pMEK, and active KRas is measured as described above.
After a single dose, the tumor samples are harvested at 2, 4, 8, 12 and 24 hr post doing. The tumor lysates are prepared and the inhibition of pERK, pMEK, and active KRas is measured as described above.

The test system of another assay is MIA Paca-2. Nature of the assay: Combination 4 day growth assay (Cell TiterGlo), MIA Paca-2. The format is cell-based. The settings on record: Homo sapiens, MIA PaCa-2, 96 h, single treatment, read-out: Absolute IC50. The procedure:
Cell lines for this study are obtained from ATCC and grown under ATCC recommended conditions, except for LXFA-983L, which is obtained from Oncotest/Charles Rivers Laboratories, Wilmington, Mass. and D122-96, which is obtained from L. Eisenbach (Weizman Institute of Science, Rehovot, Israel)—both grown under recommended conditions. […] The proliferation assay is performed as a 4 day growth assay using Cell TiterGlo® as the readout. Briefly, cells are plated in 96-well cell culture plates and allowed to adhere overnight at 37° C. The following day, cells are treated with compounds, either single treatments or combination treatments. First, the testing compounds are serially diluted in DMSO, followed by dilution into media as a 5× concentration with 1% DMSO, and finally added to cells in media to dilute to 1×. The cells are incubated at 37° C. for 4 more days. At the end of the incubation period, Cell TiterGlo® reagent is mixed and added to the wells. After 10 minutes, the luminescence is read by a Perkin Elmer Envision instrument. Absolute IC50 values generated by a 4-parameter logistics model for the single and combination treatments are generated, followed by combination indexes for each combination treatment and cell line. The combination IC50 values are adjusted based on the total concentration of each compound when added together. […] The combination index (CI) measures the degree to which the potency of a combination therapy differs from the expected-if-additive potency and is based on the Loewe definition of additivity.
[formula] Where • CAy and CBy are the concentrations of therapies A and B that produce an effect, y, when given in combination • ICAy and ICBy are the concentrations of A and B that produce an effect, y, when given individually The biological interpretation of the combination index is as follows: synergistic if the combination index <0.5, additive if the combination index is between 0.5 and 2, and antagonistic if the combination index is >2.

In the case of `C=CC(=O)N1CCN(c2ncnc3c(F)c(-c4ccc(F)c5sc(N)nc45)c(Cl)cc23)CC1` [Example 1, 1-{4-[7-(2-Amino-7-fluoro-1,3-benzothiazol-4-yl)-6-chloro-8-fluoroquinazolin-4-yl]piperazin-1-yl}prop-2-en-1-one], the “Tumor Growth Inhibition (%) or Regression (−%)” value in the assay with KYSE-410 xenograft (15 mg/kg BID) is reported as 21.2%; in the assay on KYSE-410 xenograft (30 mg/kg BID), −9%; in the assay on KYSE-410 xenograft (30 mg/kg QD), 74.5%. For the same compound, in assay [1] (H358 xenograft, time course, 10 mg/kg single dose, 24 hr, 10 mg/kg), the “% Inhibition pMEK” value is 30.4%. In addition, in assay [1] (H358 xenograft, single dose, 4 hr), the “dose to achieve 50% target inhibition (TED50), pMEK” value is 11.19 mg/kg. The inhibition at 10 mg/kg came to 49.2% in assay [1] (Mus musculus, NCI-H358, 2 h, H358 xenograft, time course, 10 mg/kg single dose, 2 hr, read-out: % Inhibition pMEK); 59.5% in assay [1] (Mus musculus, NCI-H358, 4 h, H358 xenograft, time course, 10 mg/kg single dose, 4 hr, read-out: % Inhibition pMEK); 43.1% in assay [1] (Mus musculus, NCI-H358, 4 h, H358 xenograft, 10 mg/kg single dose, 4 hr post dose, read-out: % Inhibition pMEK); 62.4% in assay [1] (Mus musculus, NCI-H358, 8 h, H358 xenograft, time course, 10 mg/kg single dose, 8 hr, read-out: % Inhibition pMEK); 77.9% in assay [1] (Mus musculus, NCI-H358, 12 h, H358 xenograft, time course, 10 mg/kg single dose, 12 hr, read-out: % Inhibition pMEK); 30% in assay [1] (Mus musculus, NCI-H358, 24 h, H358 xenograft, time course, 10 mg/kg single dose, 24 hr, read-out: % Inhibition pMEK). For the same compound, the inhibition at 10 mg/kg in assay [1] (Mus musculus, NCI-H358, H358 xenograft, 10 mg/kg single dose, from 2-12 hr, read-out: pMEK inhibition) lay within 49 to 78%. Further, the inhibition at 30 mg/kg in assay [1] (Mus musculus, NCI-H358, 2 h, H358 xenograft, time course, 2 hr, read-out: % Inhibition pMEK) came out at 81.4%; in assay [1] (Mus musculus, NCI-H358, 4 h, H358 xenograft, time course, 4 hr, read-out: % Inhibition pMEK), 89.3%; in assay [1] (Mus musculus, NCI-H358, 4 h, H358 xenograft, 4 hr post dose, read-out: % Inhibition pMEK), 82.1%; in assay [1] (Mus musculus, NCI-H358, 8 h, H358 xenograft, time course, 8 hr, read-out: % Inhibition pMEK), 81.8%; in assay [1] (Mus musculus, NCI-H358, 12 h, H358 xenograft, time course, 12 hr, read-out: % Inhibition pMEK), 65.8%; in assay [1] (Mus musculus, NCI-H358, 24 h, H358 xenograft, time course, 24 hr, read-out: % Inhibition pMEK), 35%. The inhibition at 30 mg/kg in assay [1] (Mus musculus, NCI-H358, H358 xenograft, from 2-24 hr, read-out: pMEK inhibition) fell in the range of 35 to 89%. Also, in assay [1] (Mus musculus, NCI-H358, 4 h, H358 xenograft, 1 mg/kg single dose, 4 hr post dose), the inhibition at 1 mg/kg is -6.2%. For the same compound, in assay [1] (Mus musculus, NCI-H358, 4 h, H358 xenograft, 3 mg/kg single dose, 4 hr post dose), the inhibition at 3 mg/kg was 11.1%. Moreover, the inhibition at 100 mg/kg in assay [1] (Mus musculus, NCI-H358, 4 h, H358 xenograft, 100 mg/kg single dose, 4 hr post dose) was 85.8%. The EC50 in assay [1] (Mus musculus, NCI-H358, H358 xenograft, plasma exposure by mass spectrum, read-out: plasma concentration to achieve 50% target inhibition (TEC50), pMEK) was determined as 515 nM. For the same compound, the IC50 in the assay with MIA Paca-2 was 22 nM.

What is called inhibition is the drop in the measured response relative to a control, in per cent. For orientation: IC50 means the point on the concentration scale where inhibition reaches its midpoint.

(Values after patent publication US10968214B2, “KRas G12C inhibitors” (Eli Lilly and Company, priority 2018, dated 2021).)
